The results in this text go back to PubChem BioAssay (NCI).

The structures appear in SMILES notation.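 A five-concentration, 48-hour dose response in 96-well plates underlies each endpoint, interpolated linearly between surrounding concentrations. At the TGI there is no net growth.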 A value given as a limit tells only on which side of the number the result lay.

Common to all, as to assay: inhibition of tumour cell growth, NCI panel, 48 h
Assay [1] relates to SNB-75 CNS.
In assay [2] the test system is MALME-3M melanoma.
Assay [3] has as its system HT29 colon.
The test system of assay [4] is UO-31 renal.
The test system of assay [5] is COLO 205 colon.
Assay [6] has as its system 786-0 renal.
Assay [7] deals with EKVX NSCLC.
Assay [8] deals with A498 renal.
Assay [9] concerns OVCAR-5 ovarian.

Take `O=[N+]([O-])c1ccc(N=Nc2c(O)[nH]c3ccc(Br)cc23)c([N+](=O)[O-])c1`: the TGI in assay [1] was 11.5 µM; in [2], 15 µM; in assay [3] it was more than 100 µM; in [4], 7.14 µM; in assay [5], 5.92 µM; in [6], 13.2 µM. The TGI in [7] was determined as 33.7 µM.

Take `COc1ccc(Br)c(CCCCC(=O)O)c1`: the TGI in assay [1], in assay [3], in [8], in assay [5], in assay [6] and in assay [7] was more than 100 µM in each case.

For `COc1ccc(C(=O)Nc2ccccc2)cc1[N+](=O)[O-]`, the TGI in assay [1], in assay [2], in assay [3], in assay [4], in assay [8] and in [5] was more than 100 µM each time. Further, the TGI in assay [6] and in assay [7] was more than 100 µM throughout.

With `Cc1ccc(NC(=O)CCC(=O)C2CC(=O)CCC2=O)cc1C` (configuration not stated), the TGI in assay [2], in assay [3], in [4], in assay [5], in assay [6] and in [9] was more than 100 µM each time. In assay [7], this molecule came in with a TGI of more than 100 µM.

With `CC1(C)CC[C@]2(C(=O)O)CCC3(C)C(=CCC4[C@@]5(C)CC[C@H](OC6OCC(O)C(O)C6OC6OC(CO)C(O)C(O)C6O)C(C)(C)C5CC[C@]43C)C2C1` (some centres not stated), the TGI in assay [1] came to 4.6 µM; in assay [2], 3.54 µM; in [3], 5.23 µM; in assay [4] it was 3.71 µM; in assay [8], 4.09 µM; in assay [5] it was 3.49 µM. In addition, the TGI in assay [6] is 4.02 µM; in [9], 6.93 µM; in assay [7] it was 3.85 µM.

Turning to `Nc1ccc(C(=O)O)c2[nH]c3ccccc3c(=O)c12`, the TGI in assay [1], in assay [2], in [3], in assay [4], in assay [8] and in assay [5] was more than 100 µM throughout. Further, the TGI in assay [6] and in assay [9] was more than 100 µM in each case.

With `O=C(NCCS(=O)(=O)N1C(=O)C2CCCN2C(=O)[C@@H]1Cc1ccccc1)OCc1ccccc1` (some centres not stated), the TGI in [1] is more than 100 µM; in assay [2], more than 100 µM; in assay [3] it was more than 100 µM; in assay [4], more than 100 µM; in [8], 95.9 µM; in [5], 58.4 µM. The TGI in assay [6], in assay [9] and in assay [7] was more than 100 µM in each case.

As to `COc1cc(C2c3cc4c(cc3[C@@H](OCCN)[C@H]3COC(=O)C23)OCO4)cc(OC)c1O` (some centres not stated), the TGI in assay [1] was 2.43 µM; in assay [2], 1.59 µM; in [3], 2.69 µM; in assay [4], 13.6 µM; in assay [8], 1.67 µM; in assay [5], 6.51 µM. Also, the results for the TGI in assay [6], in assay [9] and in assay [7] were 0.437 µM, 3.6 µM and 2.22 µM, respectively.

On to `COc1ccc(C(=O)Nc2ccccc2C#N)cc1`, for which the TGI in assay [1], in [2], in assay [3], in [8], in assay [5] and in [6] was more than 100 µM throughout. In addition, the TGI in assay [9] and in assay [7] was more than 100 µM in each case.

On to `COC(=O)[C@@]12C3=NO[C@]1(C(=O)OC)C(O[Si](C)(C)C(C)(C)C)C1OC(C)(C)OC1[C@@H]2[C@@H](OCc1ccccc1)CC3` (some centres not stated), for which the TGI in assay [1], in [3], in [4], in assay [8], in [5] and in [6] was more than 100 µM each time. Moreover, the TGI in [7] was more than 100 µM.

Take `Cc1cc2c(C)nn(Cc3ccc(Cl)cc3Cl)c2c(C#N)c1C`: the TGI in assay [1], in assay [2], in assay [3], in assay [4], in assay [6] and in [9] was more than 100 µM in each case. Further, in [7], the TGI is more than 100 µM.

Take `Cc1cc(C)c2c(c1C)CN1CN2Cc2c(C)c(C)cc(C)c21`: the TGI in assay [1] was 58.1 µM; in assay [2], more than 100 µM; in [3] it was more than 100 µM; in assay [4], more than 100 µM; in assay [5] it was more than 100 µM; in assay [6] it was more than 100 µM. For the same molecule, the TGI in [9] and in [7] was more than 100 µM throughout.

With `CCN1CCC(O)(c2ccccc2)C(C(=O)c2ccccc2)C1` (configuration not stated), the TGI in [1] is more than 100 µM; in assay [2] it was 38.4 µM; in [3], 39.7 µM; in assay [4], more than 70 µM; in [8], more than 100 µM; in assay [5] it was 53.1 µM. In addition, the TGI in assay [6] was 31 µM; in assay [9], 37.5 µM; in assay [7] it was more than 76.4 µM.

`Nc1ncn([C@@H]2C=C(CO)C(O)C2O)c(=O)n1` (some centres not stated): the TGI in [2], in [3], in assay [4], in [8], in assay [5] and in assay [6] was more than 100 µM each time. Besides, the TGI in assay [9] and in [7] was more than 100 µM throughout.

Turning to `CNS(=O)(=O)NN(C)S(=O)(=O)c1ccc(C)cc1`, the TGI in assay [2], in assay [3], in [4], in [8], in assay [5] and in assay [6] was more than 100 µM throughout. For the same molecule, the TGI in assay [9] and in [7] was more than 100 µM each time.

On to `CC1(C)CC(C2CC(C)(C)CC(C)(C)[C@H]2O)[C@@H](O)C(C)(C)C1` (some centres not stated), for which the TGI in [2], in assay [3], in assay [4], in assay [5], in assay [6] and in assay [7] was more than 100 µM in each case.

On to `CCCCCNC(=O)C1C(=O)N(CCCCC)C(=O)/C1=N\N` (configuration not stated), for which the TGI was more than 100 µM in assay [2]; more than 100 µM in [3]; 81.8 µM in assay [4]; more than 100 µM in assay [8]; more than 100 µM in [5]; more than 100 µM in assay [6]. The TGI in assay [9] and in [7] was more than 100 µM in each case.
